Measured values from PMC9355146, “Novel angiotensin-converting enzyme inhibitory peptides from tuna byproducts—milts: Preparation, characterization, molecular docking study, and antioxidant function on H2O2-damaged human umbilical vein endothelial cells” (Frontiers in Nutrition, 2022).
Where two headings read alike, the source gives them in different places. Values belong to the molecule of their own block, whether it stands above or below them. Where a SMILES comes first, the peptide text is derived from it.

What was measured:
[1] = test system: HUVECs; assay: Nitric oxide (NO) production in HUVECs; type: cell-based, human; conditions: 24 h, mean ± SD, n = 3
Protocol: (§1) HUVECs were cultured in 96-well plates at a density of 1 × 10^4 cells/cm^2 and treated with Cap (1 μM), NE (0.5 μM), or ACEi peptides (100–200 μM) for 24 h, or incubated with both NE (0.5 μM) and 200 μM ACEi peptides for 24 h. NO and ET-1 contents of HUVECs were determined after 24 h according to the NO and ET-1 assay kits as manufactures' protocol ([54]).

[2] = test system: HUVECs; assay: Endothelin-1 (ET-1) secretion in HUVECs; type: cell-based, human; conditions: 24 h, mean ± SD, n = 3
Protocol: as §1

[3] = test system: H2O2-damaged HUVECs; type: cell-based, human
Protocol: The cytotoxic assay was carried out as per the previous method ([54]). […] Then, 20 μL MTT solution (5 mg/mL) was put in and incubated for 4 h. In the end, DMSO was joined in each well plate, and the absorbance (A) at 490 nm was determined. Cell viability(%)= (Asample/Acontrol) × 100. The cytoprotective assay was carried out using the described methods ([55], [56]). In short, HUVECs were cultured in a 96-well plate at a density of 1 × 10^4 cells/cm^2 for 24 h. […] GSH was used as the positive control.

[4] = test system: H2O2-damaged HUVECs; assay: MDA level in H2O2-damaged HUVECs; type: cell-based, human; conditions: then H2O2 400 μM for 24 h, mean ± SD, n = 3
Protocol: (§2) The cytoprotective assay was carried out using the described methods ([55], [56]). In short, HUVECs were cultured in a 96-well plate at a density of 1 × 10^4 cells/cm^2 for 24 h. Afterward, the supernatant was aspirated, and 20 μL of ACEi peptides (TP6, TP7, and TP10) with the final concentrations of 100 and 200 μM were added to the protection groups, respectively. […] GSH was used as the positive control.
(§3) The level of ROS was determined on the method described by Cai et al. ([55]) and expressed as % of blank control; the levels of MDA, SOD, and GSH-Px were measured using assay kits in accordance with the manufacturer' protocols and expressed as U/mg prot.

[5] = test system: H2O2-damaged HUVECs; assay: SOD level in H2O2-damaged HUVECs; type: cell-based, human; conditions: then H2O2 400 μM for 24 h, mean ± SD, n = 3
Protocol: as §2, §3

[6] = test system: H2O2-damaged HUVECs; assay: GSH-Px level in H2O2-damaged HUVECs; type: cell-based, human; conditions: then H2O2 400 μM for 24 h, mean ± SD, n = 3
Protocol: as §2, §3

[7] = biological target: ACE (Oryctolagus cuniculus, UniProt G1TYT4); conditions: cited from earlier work
[8] = biological target: T1, Angiotensin-converting enzyme (ACE) (UniProt P12822)
T1 sequence: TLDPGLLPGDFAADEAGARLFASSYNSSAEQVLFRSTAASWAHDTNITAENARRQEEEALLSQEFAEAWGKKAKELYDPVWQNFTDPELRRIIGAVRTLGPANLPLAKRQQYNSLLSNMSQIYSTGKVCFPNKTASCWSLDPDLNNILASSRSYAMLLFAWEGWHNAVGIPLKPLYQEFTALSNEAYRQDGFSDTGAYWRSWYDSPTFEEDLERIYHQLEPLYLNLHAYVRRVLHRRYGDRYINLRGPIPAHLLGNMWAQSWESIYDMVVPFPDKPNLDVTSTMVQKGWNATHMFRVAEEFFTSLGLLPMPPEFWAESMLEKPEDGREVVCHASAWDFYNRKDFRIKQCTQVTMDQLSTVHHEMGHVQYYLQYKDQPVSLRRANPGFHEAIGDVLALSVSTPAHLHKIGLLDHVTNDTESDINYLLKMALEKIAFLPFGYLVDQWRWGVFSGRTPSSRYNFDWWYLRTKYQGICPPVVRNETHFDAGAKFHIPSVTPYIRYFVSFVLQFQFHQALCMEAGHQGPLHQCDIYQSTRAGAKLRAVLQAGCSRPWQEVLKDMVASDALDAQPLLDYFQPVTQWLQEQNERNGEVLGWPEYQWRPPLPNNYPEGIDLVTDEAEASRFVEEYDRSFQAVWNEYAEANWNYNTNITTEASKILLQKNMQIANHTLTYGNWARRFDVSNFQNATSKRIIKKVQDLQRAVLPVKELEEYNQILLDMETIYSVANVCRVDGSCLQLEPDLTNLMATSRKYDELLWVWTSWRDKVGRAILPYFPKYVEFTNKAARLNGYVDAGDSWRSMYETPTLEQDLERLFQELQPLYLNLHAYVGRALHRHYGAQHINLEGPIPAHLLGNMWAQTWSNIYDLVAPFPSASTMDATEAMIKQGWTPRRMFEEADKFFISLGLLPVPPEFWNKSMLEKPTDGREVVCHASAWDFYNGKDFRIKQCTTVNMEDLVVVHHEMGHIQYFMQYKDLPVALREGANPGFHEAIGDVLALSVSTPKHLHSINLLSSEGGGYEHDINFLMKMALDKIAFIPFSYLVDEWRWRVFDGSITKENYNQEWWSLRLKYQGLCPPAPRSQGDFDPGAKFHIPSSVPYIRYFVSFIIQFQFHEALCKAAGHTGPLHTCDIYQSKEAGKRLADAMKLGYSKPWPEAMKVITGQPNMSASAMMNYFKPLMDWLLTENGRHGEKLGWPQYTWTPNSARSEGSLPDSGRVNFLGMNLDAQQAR

[9] = test system: HUVECs; assay: Cytotoxic assay (MTT) on HUVECs; type: cell-based, human; conditions: 50–200 μM, 24 h
Protocol: The cytotoxic assay was carried out as per the previous method ([54]). HUVECs were cultured at a density of 1 × 10^4 cells/cm^2 to confluence in DMEM at 37°C in a humidified 5% CO2 atmosphere ([8]). The cytotoxicity of TP1–TP10 on HUVECs was measured using MTT assay ([8]). In short, HUVECs in 96-well plates at a density of 1 × 10^4 cells/cm^2 were separately treated with 20 μL samples at 50 and 200 μM, respectively, and cultured for 24 h. Then, 20 μL MTT solution (5 mg/mL) was put in and incubated for 4 h. In the end, DMSO was joined in each well plate, and the absorbance (A) at 490 nm was determined.
Cell viability(%)= (Asample/Acontrol) × 100.

[10] = NE 0.5 μM together with peptide 200 μM

Sequence of ACE (G1TYT4 1-1284): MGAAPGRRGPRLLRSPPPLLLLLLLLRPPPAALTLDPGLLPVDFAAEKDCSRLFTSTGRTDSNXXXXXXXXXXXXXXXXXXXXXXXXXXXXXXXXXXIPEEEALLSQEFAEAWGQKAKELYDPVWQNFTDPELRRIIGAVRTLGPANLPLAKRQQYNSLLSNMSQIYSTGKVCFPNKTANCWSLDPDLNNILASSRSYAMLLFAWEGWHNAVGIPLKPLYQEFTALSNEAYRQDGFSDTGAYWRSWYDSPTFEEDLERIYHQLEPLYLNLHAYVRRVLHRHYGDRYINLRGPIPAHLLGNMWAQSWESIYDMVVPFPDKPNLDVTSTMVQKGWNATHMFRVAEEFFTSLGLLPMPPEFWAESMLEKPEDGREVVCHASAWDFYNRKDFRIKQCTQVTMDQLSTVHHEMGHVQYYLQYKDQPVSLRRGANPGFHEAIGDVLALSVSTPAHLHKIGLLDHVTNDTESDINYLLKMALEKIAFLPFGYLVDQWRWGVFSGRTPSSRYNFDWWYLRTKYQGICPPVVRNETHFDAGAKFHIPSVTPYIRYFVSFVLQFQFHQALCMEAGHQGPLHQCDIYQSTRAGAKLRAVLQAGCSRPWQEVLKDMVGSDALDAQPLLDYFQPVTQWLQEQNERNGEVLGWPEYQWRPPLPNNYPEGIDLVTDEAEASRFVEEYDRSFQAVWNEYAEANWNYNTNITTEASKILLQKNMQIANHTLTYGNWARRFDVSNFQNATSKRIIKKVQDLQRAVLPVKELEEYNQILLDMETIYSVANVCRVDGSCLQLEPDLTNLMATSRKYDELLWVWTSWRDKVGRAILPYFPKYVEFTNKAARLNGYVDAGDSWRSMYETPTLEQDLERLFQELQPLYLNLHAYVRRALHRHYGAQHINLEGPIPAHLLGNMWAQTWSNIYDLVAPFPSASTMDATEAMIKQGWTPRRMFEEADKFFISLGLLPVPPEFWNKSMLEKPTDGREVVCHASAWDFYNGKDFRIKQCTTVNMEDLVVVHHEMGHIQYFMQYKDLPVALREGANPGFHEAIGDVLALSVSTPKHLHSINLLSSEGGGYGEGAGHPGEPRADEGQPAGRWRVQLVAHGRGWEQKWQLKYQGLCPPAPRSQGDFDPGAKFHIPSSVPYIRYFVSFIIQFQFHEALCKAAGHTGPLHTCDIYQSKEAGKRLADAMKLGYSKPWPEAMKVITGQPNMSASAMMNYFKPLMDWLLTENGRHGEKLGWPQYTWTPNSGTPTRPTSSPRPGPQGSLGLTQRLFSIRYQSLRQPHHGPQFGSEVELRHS

Molecule: CC[C@H](C)[C@H](N)C(=O)N[C@@H](CS)C(=O)N[C@@H](Cc1ccc(O)cc1)C(=O)O [TP6, Ile-Cys-Tyr] (H-Ile-Cys-Tyr-OH)
NO level [1, 10]: 42.21 ± 2.66 μmol/gprot
NO level ([1]; peptide 200 μM): 50.63 ± 1.95 μmol/gprot
ET-1 level [2, 10]: 105.18 ± 3.29 pg/mL
ET-1 level ([2]; peptide 200 μM): 92.57 ± 2.68 pg/mL
cell viability of H2O2-damaged HUVECs ([3]; 8 h, 200 μM): 69.76 ± 3.06%
MDA level ([4]; peptide 200 μM for 8 h): 17.08 ± 0.96 nmol/mg prot
SOD level ([5]; peptide 100 μM for 8 h): 168.77 ± 5.32 U/mg prot
SOD level ([5]; peptide 200 μM for 8 h): 184.06 ± 7.19 U/mg prot
GSH-Px level ([6]; peptide 100 μM for 8 h): 42.69 ± 1.32 U/mg prot
GSH-Px level ([6]; peptide 200 μM for 8 h): 51.28 ± 3.16 U/mg prot

Molecule: OO [H2O2]
cell viability of HUVECs (% of the blank group) ([3]; H2O2 400 μM alone, 24 h (oxidative damage model), mean ± SD, n = 3): 50.48 ± 1.96%

Molecule: FRKE
IC50 on ACE ([7]; ACEi peptides from Antarctic krill): 6970 µg/mL

ACEi activity (IC50): inhibition of ACE hydrolysis of FAPGG, absorbance at 340 nm, 37°C, pH 8.3 [8]: 0.48 mg/mL
Molecule: TP6, Ile-Cys-Tyr (ICY) (peptide)

Molecule: N[C@@H](CCC(=O)N[C@@H](CS)C(=O)NCC(=O)O)C(=O)O [GSH, glutathione, reference compound]
cell viability of H2O2-damaged HUVECs ([3]; GSH positive control (concentration not given), then H2O2 400 μM for 24 h, mean ± SD, n = 3): 75.69 ± 3.52%
MDA level ([4]; GSH positive control (concentration not given)): 15.28 ± 0.61 nmol/mg prot

Molecule: LGPLGHQ
IC50 on ACE ([7]; ACEi peptide from skate): 4220 µg/mL

Molecule: NC[C@H](O)c1ccc(O)c(O)c1 [NE, Norepinephrine, reference compound]
NO level ([1]; NE 0.5 μM alone): 22.91 ± 1.26 μmol/gprot
ET-1 secretion ([2]; NE 0.5 μM alone): 148.35 ± 3.87 pg/mL

Molecule: CC[C@H](C)[C@H](N)C(=O)N[C@@H](Cc1ccc(O)cc1)C(=O)N[C@@H](CO)C(=O)N1CCC[C@H]1C(=O)O [TP10, Ile-Tyr-Ser-Pro] (H-IYSP-OH)
toxicity to HUVECs (in words) [9]: no significant toxicity
NO level [1, 10]: 39.27 ± 1.96 μmol/gprot
NO level ([1]; peptide 200 μM): 46.78 ± 2.47 μmol/gprot
ET-1 level [2, 10]: 109.12 ± 2.95 pg/mL
ET-1 level ([2]; peptide 200 μM): 96.15 ± 1.35 pg/mL
cell viability of H2O2-damaged HUVECs ([3]; 8 h, 200 μM): 61.58 ± 3.04%
MDA level ([4]; peptide 200 μM for 8 h): 19.11 ± 0.88 nmol/mg prot
SOD level ([5]; peptide 100 μM for 8 h): 154.35 ± 3.68 U/mg prot
SOD level ([5]; peptide 200 μM for 8 h): 172.93 ± 6.58 U/mg prot
GSH-Px level ([6]; peptide 100 μM for 8 h): 38.91 ± 1.17 U/mg prot
GSH-Px level ([6]; peptide 200 μM for 8 h): 44.69 ± 2.09 U/mg prot

Molecule: EHPVL
IC50 on ACE ([7]; ACEi peptide from stone fish): 1680 µg/mL

Molecule: MLVFAV
IC50 on ACE ([7]; ACEi peptide from Katsuwonus pelamis): 2360 µg/mL

Molecule: CC(C)C[C@H](N)C(=O)N[C@@H](CO)C(=O)N[C@@H](Cc1ccccc1)C(=O)N[C@@H](CCCNC(=N)N)C(=O)O [TP7, Leu-Ser-Phe-Arg] (H-LSFR-OH)
toxicity to HUVECs (in words) [9]: no significant toxicity
NO level [1, 10]: 35.18 ± 1.2 μmol/gprot
NO level ([1]; peptide 200 μM): 45.91 ± 1.68 μmol/gprot
ET-1 level [2, 10]: 110.36 ± 1.76 pg/mL
ET-1 level ([2]; peptide 200 μM): 101.49 ± 2.05 pg/mL
cell viability of H2O2-damaged HUVECs ([3]; 8 h, 200 μM): 59.15 ± 2.81%
MDA level ([4]; peptide 200 μM for 8 h): 20.68 ± 1.06 nmol/mg prot
SOD level ([5]; peptide 100 μM for 8 h): 141.79 ± 3.96 U/mg prot
SOD level ([5]; peptide 200 μM for 8 h): 158.79 ± 5.93 U/mg prot
GSH-Px level ([6]; peptide 100 μM for 8 h): 35.61 ± 1.23 U/mg prot
GSH-Px level ([6]; peptide 200 μM for 8 h): 40.93 ± 2.15 U/mg prot

ACEi activity (IC50): inhibition of ACE hydrolysis of FAPGG, absorbance at 340 nm, 37°C, pH 8.3 [8]: 0.76 mg/mL
B1: TP10, Ile-Tyr-Ser-Pro (IYSP) (peptide)
peptide: IYSP

ACEi activity (IC50): inhibition of ACE hydrolysis of FAPGG, absorbance at 340 nm, 37°C, pH 8.3 [8]: 0.59 mg/mL
B2: TP7, Leu-Ser-Phe-Arg (LSFR) (peptide)
peptide: LSFR
